Test results: PMC6429214, “Design, Synthesis and Biological Evaluation of Isoxazole-Based CK1 Inhibitors Modified with Chiral Pyrrolidine Scaffolds” (Molecules, 2019)

Tests used:
Assay in all cases: 33PanQinase panel
Type in all cases: biochemical
MARK2 = biological target: T1, MARK2 (Homo sapiens, UniProt Q7KZI7); details: MARK2, 1 µM; read-out: Residual Activity (%)
T1 construct: purchased ProQinase
Procedure: (§1) Figure 5 Dendrogram representation of the selectivity profile of 29d at a concentration of 1 μM in a panel of 320 wild-type kinases (ProQinase, Freiburg, Germany). The residual kinase activity was determined compared to DMSO control. Images were generated using TREEspot Software Tool, DISCOVERX CORPORATION 2010. […]
(§2) Table S2. Selectivity profile of compound 29d. The inhibitor has been screened at a concentration of 1 µM over a panel of 320 wild-type protein kinases by ProQinase GmbH (Freiburg, Germany) using an activity-based radiometric 33PanQinase® assay. Results are presented as percentage of residual kinase activity relative to […]
(§3) control. The final DMSO concentration was 1 % in each reaction-mix. Classification of protein kinase families refers to Manning et al. (Manning, G.; Whyte, D. B.; Martinez, R.; Hunter, T.; Sudarsanam, S. The Protein Kinase Complement of the Human Genome. Science 2002, 298, 1912–1934): AGC = containing PKA, PKG, PKC families; […] = containing Cdk, MAPK, GSK3, CLK families; STE = homologs of yeast sterile 7, sterile 11, sterile 20 kinases; TK = tyrosine kinase; TKL = tyrosine kinase-like.
(§4) Kinase name Kinase family Residual Activity (%)

SRPK1 = biological target: T2, SRPK1 (Homo sapiens, UniProt Q96SB4); details: SRPK1, 1 µM; read-out: Residual Activity (%)
T2 construct: purchased ProQinase
Procedure: as §1, §2, §3, §4

BRK = biological target: T3, BRK (Homo sapiens, UniProt Q13882); details: read-out: Residual Activity (%)
T3 construct: purchased ProQinase
T3 sequence (Q13882 whole entry): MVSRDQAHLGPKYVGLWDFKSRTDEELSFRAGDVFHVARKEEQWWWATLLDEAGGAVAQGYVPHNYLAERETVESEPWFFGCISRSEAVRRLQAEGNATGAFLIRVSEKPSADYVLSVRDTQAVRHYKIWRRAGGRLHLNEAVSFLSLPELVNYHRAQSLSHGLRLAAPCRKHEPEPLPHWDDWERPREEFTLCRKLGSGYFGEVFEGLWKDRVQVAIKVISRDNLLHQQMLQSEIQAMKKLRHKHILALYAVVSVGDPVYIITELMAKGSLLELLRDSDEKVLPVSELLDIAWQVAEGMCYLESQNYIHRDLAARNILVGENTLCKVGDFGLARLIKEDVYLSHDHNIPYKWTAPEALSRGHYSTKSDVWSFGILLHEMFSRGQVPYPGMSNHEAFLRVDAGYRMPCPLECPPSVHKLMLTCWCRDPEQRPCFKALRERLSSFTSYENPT
Procedure: as §1, §2, §3, §4

MST2 = biological target: T4, MST2 (Homo sapiens, UniProt Q13188); details: MST2, 1 µM; read-out: Residual Activity (%)
T4 construct: purchased ProQinase
Procedure: as §1, §2, §3, §4

HCK = biological target: T5, HCK (Homo sapiens, UniProt P08631); details: read-out: Residual Activity (%)
T5 construct: purchased ProQinase
T5 sequence (P08631 whole entry): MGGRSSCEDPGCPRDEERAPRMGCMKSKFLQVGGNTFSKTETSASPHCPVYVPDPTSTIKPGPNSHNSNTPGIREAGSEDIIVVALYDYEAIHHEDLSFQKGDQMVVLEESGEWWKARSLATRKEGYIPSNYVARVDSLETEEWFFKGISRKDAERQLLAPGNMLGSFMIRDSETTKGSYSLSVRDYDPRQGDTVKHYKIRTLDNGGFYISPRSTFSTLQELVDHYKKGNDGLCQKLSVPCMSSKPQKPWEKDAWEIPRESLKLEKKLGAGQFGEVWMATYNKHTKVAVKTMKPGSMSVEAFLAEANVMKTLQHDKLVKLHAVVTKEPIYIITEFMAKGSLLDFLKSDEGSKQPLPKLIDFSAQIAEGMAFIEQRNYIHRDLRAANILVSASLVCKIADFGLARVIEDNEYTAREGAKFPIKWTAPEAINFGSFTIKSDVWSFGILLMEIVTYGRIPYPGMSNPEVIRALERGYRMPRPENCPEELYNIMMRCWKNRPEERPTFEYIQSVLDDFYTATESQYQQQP
Procedure: as §1, §2, §3, §4

ZAK = biological target: T6, ZAK (Homo sapiens, UniProt Q9NYL2); details: read-out: Residual Activity (%)
T6 construct: purchased ProQinase
Procedure: as §1, §2, §3, §4

DYRK2 = biological target: T7, DYRK2 (Homo sapiens, UniProt Q92630); details: DYRK2, 1 µM; read-out: Residual Activity (%)
T7 construct: purchased ProQinase
Procedure: as §1, §2, §3, §4

ACV-R2A = biological target: T8, ACV-R2A (Homo sapiens, UniProt P27037); details: read-out: Residual Activity (%)
T8 construct: purchased ProQinase
T8 sequence (P27037 20-513): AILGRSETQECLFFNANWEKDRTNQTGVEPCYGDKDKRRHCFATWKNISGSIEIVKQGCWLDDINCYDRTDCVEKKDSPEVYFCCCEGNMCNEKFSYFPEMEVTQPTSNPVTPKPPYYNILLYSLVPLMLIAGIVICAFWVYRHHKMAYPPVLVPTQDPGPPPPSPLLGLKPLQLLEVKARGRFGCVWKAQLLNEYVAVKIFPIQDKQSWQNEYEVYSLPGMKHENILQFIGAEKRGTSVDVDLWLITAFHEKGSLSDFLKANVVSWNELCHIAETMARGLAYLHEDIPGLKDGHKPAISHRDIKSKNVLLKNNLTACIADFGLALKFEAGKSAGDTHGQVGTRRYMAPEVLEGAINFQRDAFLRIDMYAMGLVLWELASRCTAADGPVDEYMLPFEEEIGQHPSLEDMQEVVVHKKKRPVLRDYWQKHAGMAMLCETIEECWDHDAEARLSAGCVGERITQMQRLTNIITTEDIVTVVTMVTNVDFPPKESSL
Procedure: as §1, §2, §3, §4

DAPK3 = biological target: T9, DAPK3 (Homo sapiens, UniProt O43293); details: DAPK3, 1 µM; read-out: Residual Activity (%)
T9 construct: purchased ProQinase
T9 sequence (O43293 whole entry): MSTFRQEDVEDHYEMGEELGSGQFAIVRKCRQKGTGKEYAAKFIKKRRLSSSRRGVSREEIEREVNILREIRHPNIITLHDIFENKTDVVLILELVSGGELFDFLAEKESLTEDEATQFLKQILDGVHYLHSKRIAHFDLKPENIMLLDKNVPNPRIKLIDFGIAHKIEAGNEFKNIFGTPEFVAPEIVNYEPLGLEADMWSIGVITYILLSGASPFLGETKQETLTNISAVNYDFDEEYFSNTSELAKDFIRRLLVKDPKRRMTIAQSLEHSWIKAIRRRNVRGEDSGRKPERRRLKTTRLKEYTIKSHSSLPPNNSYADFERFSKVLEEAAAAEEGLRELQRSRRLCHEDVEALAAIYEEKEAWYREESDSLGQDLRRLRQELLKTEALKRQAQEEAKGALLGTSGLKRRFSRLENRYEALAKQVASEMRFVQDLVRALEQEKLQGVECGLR
Procedure: as §1, §2, §3, §4

IGF1-R = biological target: T10, IGF1-R (Homo sapiens, UniProt P08069); details: read-out: Residual Activity (%)
T10 construct: purchased ProQinase
Procedure: as §1, §2, §3, §4

DAPK1 = biological target: T11, DAPK1 (Homo sapiens, UniProt P53355); details: DAPK1, 1 µM; read-out: Residual Activity (%)
T11 construct: purchased ProQinase
T11 sequence (P53355 whole entry): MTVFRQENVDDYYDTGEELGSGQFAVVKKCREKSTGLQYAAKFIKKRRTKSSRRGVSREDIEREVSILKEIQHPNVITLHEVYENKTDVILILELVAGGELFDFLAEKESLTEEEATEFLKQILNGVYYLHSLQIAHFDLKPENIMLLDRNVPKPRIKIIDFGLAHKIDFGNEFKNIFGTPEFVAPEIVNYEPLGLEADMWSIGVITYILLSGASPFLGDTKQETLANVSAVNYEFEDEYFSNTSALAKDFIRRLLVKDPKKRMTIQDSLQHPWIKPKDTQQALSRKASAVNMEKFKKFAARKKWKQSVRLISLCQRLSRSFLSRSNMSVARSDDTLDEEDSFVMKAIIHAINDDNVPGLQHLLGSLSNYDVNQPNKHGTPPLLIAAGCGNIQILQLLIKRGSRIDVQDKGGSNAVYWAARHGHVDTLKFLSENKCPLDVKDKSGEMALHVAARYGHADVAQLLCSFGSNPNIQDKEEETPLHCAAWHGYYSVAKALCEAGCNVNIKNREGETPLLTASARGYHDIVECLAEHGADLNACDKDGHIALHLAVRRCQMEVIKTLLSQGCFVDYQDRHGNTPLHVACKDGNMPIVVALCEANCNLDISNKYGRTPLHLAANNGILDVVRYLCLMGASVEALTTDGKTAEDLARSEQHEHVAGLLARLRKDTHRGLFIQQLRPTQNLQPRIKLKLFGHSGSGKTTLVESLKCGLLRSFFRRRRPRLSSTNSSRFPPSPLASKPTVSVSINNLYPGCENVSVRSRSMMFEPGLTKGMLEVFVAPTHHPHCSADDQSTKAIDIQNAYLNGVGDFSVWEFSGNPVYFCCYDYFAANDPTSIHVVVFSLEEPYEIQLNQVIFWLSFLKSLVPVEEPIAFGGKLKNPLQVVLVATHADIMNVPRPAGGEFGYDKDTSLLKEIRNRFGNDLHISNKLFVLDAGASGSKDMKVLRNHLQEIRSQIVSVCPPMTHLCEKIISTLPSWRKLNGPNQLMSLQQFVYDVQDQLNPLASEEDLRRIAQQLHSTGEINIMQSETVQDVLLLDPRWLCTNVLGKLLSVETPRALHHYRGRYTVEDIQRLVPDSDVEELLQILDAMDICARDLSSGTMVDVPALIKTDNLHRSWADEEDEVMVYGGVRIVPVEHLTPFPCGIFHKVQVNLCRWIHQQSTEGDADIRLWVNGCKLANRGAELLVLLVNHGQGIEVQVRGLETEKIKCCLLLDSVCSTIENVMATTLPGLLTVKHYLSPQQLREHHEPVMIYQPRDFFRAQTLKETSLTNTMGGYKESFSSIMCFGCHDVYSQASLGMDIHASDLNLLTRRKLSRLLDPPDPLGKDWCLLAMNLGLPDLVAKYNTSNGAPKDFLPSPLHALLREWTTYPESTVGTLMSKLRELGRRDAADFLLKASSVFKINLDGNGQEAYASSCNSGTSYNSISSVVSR
Procedure: as §1, §2, §3, §4

CK2-alpha1 = biological target: T12, CK2-alpha1 (Homo sapiens, UniProt P68400); details: CK2-alpha1, 1 µM; read-out: Residual Activity (%)
T12 construct: purchased ProQinase
Procedure: as §1, §2, §3, §4

TTK = biological target: T13, TTK (Homo sapiens, UniProt P33981); details: read-out: Residual Activity (%)
T13 construct: purchased ProQinase
Procedure: as §1, §2, §3, §4

SYK aa1-635 = biological target: T14, SYK aa1-635 (Homo sapiens, UniProt P43405); details: SYK aa1-635, 1 µM; read-out: Residual Activity (%)
T14 construct: purchased ProQinase
Procedure: as §1, §2, §3, §4

NEK7 = biological target: T15, NEK7 (Homo sapiens, UniProt Q8TDX7); details: NEK7, 1 µM; read-out: Residual Activity (%)
T15 construct: purchased ProQinase
Procedure: as §1, §2, §3, §4

CDK2/CycE1 = biological target: T16, CDK2/CycE1 (Homo sapiens, UniProt P24941); details: CDK2/CycE1, 1 µM; read-out: Residual Activity (%)
T16 construct: purchased ProQinase
Procedure: as §1, §2, §3, §4

p38-gamma = biological target: T17, p38-gamma (Homo sapiens, UniProt P53778); details: read-out: Residual Activity (%)
T17 construct: purchased ProQinase
T17 sequence (P53778 whole entry): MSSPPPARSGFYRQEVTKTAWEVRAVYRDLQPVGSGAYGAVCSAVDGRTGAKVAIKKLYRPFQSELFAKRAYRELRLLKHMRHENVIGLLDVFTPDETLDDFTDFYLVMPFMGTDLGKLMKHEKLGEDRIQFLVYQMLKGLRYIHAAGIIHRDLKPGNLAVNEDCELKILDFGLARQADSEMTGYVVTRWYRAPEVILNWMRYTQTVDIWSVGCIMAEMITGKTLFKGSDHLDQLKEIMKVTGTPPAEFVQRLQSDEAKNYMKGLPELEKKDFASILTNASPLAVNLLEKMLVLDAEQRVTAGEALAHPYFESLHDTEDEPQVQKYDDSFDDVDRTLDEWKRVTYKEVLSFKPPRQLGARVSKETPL
Procedure: as §1, §2, §3, §4

ACV-R2B = biological target: T18, ACV-R2B (Homo sapiens, UniProt Q13705); details: read-out: Residual Activity (%)
T18 construct: purchased ProQinase
Procedure: as §1, §2, §3, §4

ROS = biological target: T19, ROS (Homo sapiens, UniProt P08922); details: read-out: Residual Activity (%)
T19 construct: purchased ProQinase
Procedure: as §1, §2, §3, §4

PHKG2 = biological target: T20, PHKG2 (Homo sapiens, UniProt P15735); details: PHKG2, 1 µM; read-out: Residual Activity (%)
T20 construct: purchased ProQinase
Procedure: as §1, §2, §3, §4

FRK = biological target: T21, FRK (Homo sapiens, UniProt P42685); details: read-out: Residual Activity (%)
T21 construct: purchased ProQinase
Procedure: as §1, §2, §3, §4

PKC-delta = biological target: T22, PKC-delta (Homo sapiens, UniProt Q05655); details: read-out: Residual Activity (%)
T22 construct: purchased ProQinase
T22 sequence (Q05655 whole entry): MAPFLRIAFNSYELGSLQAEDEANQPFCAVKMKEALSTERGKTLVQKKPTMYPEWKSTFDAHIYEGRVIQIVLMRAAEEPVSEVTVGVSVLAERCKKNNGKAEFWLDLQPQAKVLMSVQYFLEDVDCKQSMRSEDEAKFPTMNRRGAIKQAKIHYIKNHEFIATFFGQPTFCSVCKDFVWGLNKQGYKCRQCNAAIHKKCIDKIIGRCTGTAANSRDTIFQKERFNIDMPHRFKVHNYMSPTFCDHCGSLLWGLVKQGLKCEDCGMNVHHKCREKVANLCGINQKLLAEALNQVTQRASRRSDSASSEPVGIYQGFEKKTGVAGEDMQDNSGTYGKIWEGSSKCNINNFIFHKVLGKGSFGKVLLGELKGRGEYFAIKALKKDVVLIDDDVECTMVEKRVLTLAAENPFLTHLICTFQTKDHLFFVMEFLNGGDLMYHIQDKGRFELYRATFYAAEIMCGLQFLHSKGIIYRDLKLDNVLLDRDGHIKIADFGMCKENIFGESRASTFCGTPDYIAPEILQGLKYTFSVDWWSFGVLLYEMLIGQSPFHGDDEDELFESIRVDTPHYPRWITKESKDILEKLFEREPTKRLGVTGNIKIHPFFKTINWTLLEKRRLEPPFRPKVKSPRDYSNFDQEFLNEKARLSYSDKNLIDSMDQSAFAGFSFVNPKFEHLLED
Procedure: as §1, §2, §3, §4

S6K = biological target: T23, S6K (Homo sapiens, UniProt P23443); details: read-out: Residual Activity (%)
T23 construct: purchased ProQinase
Procedure: as §1, §2, §3, §4

LRRK2 = biological target: T24, LRRK2 (Homo sapiens, UniProt Q5S007); details: LRRK2, 1 µM; read-out: Residual Activity (%)
T24 construct: purchased ProQinase
Procedure: as §1, §2, §3, §4

Aurora-B = biological target: T25, Aurora-B (Homo sapiens, UniProt Q96GD4); details: read-out: Residual Activity (%)
T25 construct: purchased ProQinase
Procedure: as §1, §2, §3, §4

MKNK2 = biological target: T26, MKNK2 (Homo sapiens, UniProt Q9HBH9); details: MKNK2, 1 µM; read-out: Residual Activity (%)
T26 construct: purchased ProQinase
Procedure: as §1, §2, §3, §4

PKC-mu = biological target: T27, PKC-mu (Homo sapiens, UniProt Q15139); details: read-out: Residual Activity (%)
T27 construct: purchased ProQinase
Procedure: as §1, §2, §3, §4

Aurora-C = biological target: T28, Aurora-C (Homo sapiens, UniProt Q9UQB9); details: read-out: Residual Activity (%)
T28 construct: purchased ProQinase
Procedure: as §1, §2, §3, §4

MKK6 S207D/T211D** = biological target: T29, MKK6 S207D/T211D** (Homo sapiens, UniProt P52564, S207D/T211D); details: read-out: Residual Activity (%)
T29 construct: purchased ProQinase
T29 sequence (P52564 whole entry S207D/T211D): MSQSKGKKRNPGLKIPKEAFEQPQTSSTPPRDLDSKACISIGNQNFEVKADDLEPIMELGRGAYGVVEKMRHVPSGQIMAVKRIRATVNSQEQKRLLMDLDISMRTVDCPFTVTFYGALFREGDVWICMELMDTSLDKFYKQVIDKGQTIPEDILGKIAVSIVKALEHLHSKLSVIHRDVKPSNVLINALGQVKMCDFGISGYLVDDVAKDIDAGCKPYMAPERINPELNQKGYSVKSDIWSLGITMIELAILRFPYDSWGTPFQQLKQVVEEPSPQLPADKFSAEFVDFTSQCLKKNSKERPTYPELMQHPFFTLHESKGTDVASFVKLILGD
Procedure: as §1, §2, §3, §4

CDK4/CycD3 = biological target: T30, CDK4/CycD3 (Homo sapiens, UniProt P11802); details: CDK4/CycD3, 1 µM; read-out: Residual Activity (%)
T30 construct: purchased ProQinase
Procedure: as §1, §2, §3, §4

FGF-R4 = biological target: T31, FGF-R4 (Homo sapiens, UniProt P22455); details: FGF-R4, 1 µM; read-out: Residual Activity (%)
T31 construct: purchased ProQinase
Procedure: as §1, §2, §3, §4

Work on `COc1ccc(-c2cc(C(=O)Nc3cc(-c4c(-c5ccc(F)cc5)noc4C(C)C)ccn3)n(CC3NCC(O)C3O)c2)cc1` (stereo not shown) [29d] yielded a remaining activity at 1 µM (MARK2) of 97%, a remaining activity at 1 µM (SRPK1) of 105% and a remaining activity at 1 µM (BRK) of 131%. For the same compound, the remaining activity at 1 µM (MST2) was 85%, the remaining activity at 1 µM (HCK) was 110% and the remaining activity at 1 µM (ZAK) was 116%. The remaining activity at 1 µM (DYRK2) was 96%, the remaining activity at 1 µM (ACV-R2A) was 125% and the remaining activity at 1 µM (DAPK3) was 90%. For the same compound, the remaining activity at 1 µM (IGF1-R) was 104%, the remaining activity at 1 µM (DAPK1) was 101% and the remaining activity at 1 µM (CK2-alpha1) was 103%. For the same compound, the remaining activity at 1 µM (TTK) was 100%, the remaining activity at 1 µM (SYK aa1-635) was 148% and the remaining activity at 1 µM (NEK7) was 116%. For the same compound, the remaining activity at 1 µM (CDK2/CycE1) was 93%, the remaining activity at 1 µM (p38-gamma) was 99% and the remaining activity at 1 µM (ACV-R2B) was 127%. For the same compound, the remaining activity at 1 µM (ROS) was 88%, the remaining activity at 1 µM (PHKG2) was 93% and the remaining activity at 1 µM (FRK) was 94%. For the same compound, the remaining activity at 1 µM (PKC-delta) was 100%, the remaining activity at 1 µM (S6K) was 102% and the remaining activity at 1 µM (LRRK2) was 100%. It also gave a remaining activity at 1 µM (Aurora-B) of 96%, a remaining activity at 1 µM (MKNK2) of 92% and a remaining activity at 1 µM (PKC-mu) of 94%. The remaining activity at 1 µM (Aurora-C) was 97%, the remaining activity at 1 µM (MKK6 S207D/T211D**) was 91% and the remaining activity at 1 µM (CDK4/CycD3) was 98%. For the same compound, the remaining activity at 1 µM (FGF-R4) was 125%.
